Measured values taken from US20130225548A1, “Pyridine Derivative and Medicinal Agent” (NIPPON SHINYAKU CO., LTD., priority 2010, published 2013).
Where a name gives a salt, the structure may show the parent alone.

Biological target: T1, Syk tyrosine kinase (Homo sapiens, UniProt P43405)
T1 construct: purchased Carna Biosciences, Inc
Assay: Test for Syk tyrosine kinase inhibitory activity (ELISA)
Assay type: biochemical
Details: Syk tyrosine kinase (Carna Biosciences), 25 μM ATP in substrate solution, 30° C. 1 hour, n=2; read-out: Evaluation (IC50, concentration inhibiting the tyrosine kinase activity at 50%)
Method in brief: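 Syk kinase (0.025 nM stock before addition) with 625 nM biotinylated peptide and 25 μM ATP (substrate-solution levels) in Tris pH 7.5, MgCl2, DTT; 1 h at 30 °C on streptavidin plates. Phosphotyrosine detected by HRP anti-pTyr antibody, TMB, A450; IC50 by non-linear regression.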

How did the IC50 turn out when `CN(C)CCOc1cncc(-c2cc(C3CC3)cc(Nc3cc(C#N)ccn3)n2)c1` [Example 107, 2-({4-cyclopropyl-5′-[2-(dimethylamino)ethoxy]-2,3′-bipyridin-6-yl}amino)pyridine-4-carbonitrile hydrochloride] was run?
Its IC50 is 5 to 50 nM.

For `CN(C)C(C)(C)COc1cncc(-c2cc(C3CC3)cc(Nc3cc(C#N)ccn3)n2)c1` [Example 108, 2-({4-cyclopropyl-5′-[2-(dimethylamino)-2-methylpropoxy]-2,3′-bipyridin-6-yl}amine)pyridine-4-carbonitrile hydrochloride], which IC50 is on record?
Its IC50 is 50 to 500 nM.

For `N#Cc1ccnc(Nc2cc(C3CC3)cc(-c3cncc(OCC(N)=O)c3)n2)c1` [Example 109, 2-({6-[(4-cyanopyridin-2-yl)amino]-4-cyclopropyl-2,3′-bipyridin-5′-yl}oxy)acetamide hydrochloride], which IC50 is on record?
Its IC50 is 5 to 50 nM.

For `CC(=O)N1CCCN(c2cncc(-c3cc(C4CC4)cc(Nc4cc(C#N)ccn4)n3)c2)CC1` [Example 110, 2-{[5′-(4-acetyl-1,4-diazepan-1-yl)-4-cyclopropyl-2,3′-bipyridin-6-yl]amino}pyridine-4-carbonitrile hydrochloride], which IC50 is on record?
Its IC50 is 50 to 500 nM.

Which IC50 does the source give for `N#Cc1ccnc(Nc2cc(C3CC3)cc(-c3cncc(N4CCC(O)C4)c3)n2)c1` (stereo not drawn) [Example 111, 2-{[4-cyclopropyl-5′-(3-hydroxypyrrolidin-1-yl)-2,3′-bipyridin-6-yl]amino}pyridine-4-carbonitrile hydrochloride] here?
The IC50 was 5 to 50 nM.

`N#Cc1ccnc(Nc2cc(C3CC3)cc(-c3cncc(N4CCC[C@H](O)C4)c3)n2)c1` [Example 112, 2-({4-cyclopropyl-5′-[(3S)-3-hydroxypiperidin-1-yl]-2,3′-bipyridin-6-yl}amino)pyridine-4-carbonitrile hydrochloride] was tested. Which IC50 did it give?
The IC50 was less than 5 nM.

For `N#Cc1ccnc(Nc2cc(C3CC3)cc(-c3cncc(N4CCC[C@@H](O)C4)c3)n2)c1` [Example 113, 2-({4-cyclopropyl-5′-[(3R)-3-hydroxypiperidin-1-yl]-2,3′-bipyridin-6-yl}amino)pyridine-4-carbonitrile hydrochloride], which IC50 is on record?
The IC50 was 5 to 50 nM.

With `Cn1cc(-c2cncc(-c3cc(C4CC4)cc(Nc4cc(C#N)ccn4)n3)c2)cn1` [Example 114, 2-{[4-cyclopropyl-5′-(1-methyl-1H-pyrazol-4-yl)-2,3′-bipyridin-6-yl]amino}pyridine-4-carbonitrile hydrochloride] as the compound, how does the IC50 read?
The IC50 was 50 to 500 nM.

For `N#Cc1ccnc(Nc2cc(C3CC3)cc(-c3cncc(N4CCNC(=O)C4)c3)n2)c1` [Example 115, 2-{[4-cyclopropyl-5′-(3-oxopiperazin-1-yl)-2,3′-bipyridin-6-yl]amino}pyridine-4-carbonitrile], which IC50 is on record?
Its IC50 is less than 5 nM.

`N#Cc1ccnc(Nc2cc(C3CC3)cc(-c3cncc(N4CCC(O)CC4)c3)n2)c1` [Example 116, 2-{[4-cyclopropyl-5′-(4-hydroxypiperidin-1-yl)-2,3′-bipyridin-6-yl]amino}pyridine-4-carbontrile hydrochloride] was tested. Which IC50 did it give?
The IC50 was 5 to 50 nM.

How did the IC50 turn out when `N#Cc1ccnc(Nc2cc(C3CC3)cc(-c3ccc4c(c3)ncn4C(CO)CO)n2)c1` [Example 117, 2-({4-cyclopropy-6-[1-(1,3-dihydroxypropan-2-yl)-1H-benzimidazol-5-yl)]pyridin-2-yl}amino)pyridine-4-carbonitrile hydrochloride] was run?
The IC50 was 5 to 50 nM.

For `CC(C)(O)Cn1cnc2cc(-c3cc(C4CC4)cc(Nc4cc(C#N)ccn4)n3)ccc21` [Example 118, 2-({4-cyclopropyl-6-[1-(2-hyroxy-2-methylpropyl)-1H-benzimidazol-5-yl]pyridin-2-yl}amino)pyridine-4-carbonitrile hydrochloride], which IC50 is on record?
Its IC50 is 50 to 500 nM.

For `CC(C)(CO)Cn1cnc2cc(-c3cc(C4CC4)cc(Nc4cc(C#N)ccn4)n3)ccc21` [Example 119, 2-({4-cyclopropyl-6-[1-(3-hydroxy-2,2-dimethylpropyl)-1H-benzimidazol-5-yl]pyridin-2-yl}amino)pyridine-4-carbonitrile hydrochloride], which IC50 is on record?
Its IC50 is 50 to 500 nM.

For `N#Cc1ccnc(Nc2cc(C3CC3)cc(-c3ccc4c(c3)ncn4CC3(O)CCCCC3)n2)c1` [Example 120, 2-[(4-cyclopropyl-6-{1-[(1-hydroxycyclohexyl)methyl]-1H-benzimidazol-5-yl}pyridin-2-yl)amino]pyridine-4-carbonitrile hydrochloride], which IC50 is on record?
The IC50 was 50 to 500 nM.

Which IC50 does the source give for `N#Cc1ccnc(Nc2cc(C3CC3)cc(-c3ccc4c(c3)ncn4CCCO)n2)c1` [Example 121, 2-({4-cyclopropyl-6-[1-(3-hydroxypropyl)-1H-benzimidazol-5-yl]pyridin-2-yl}amino)pyridine-4-carbonitrile hydrochloride] here?
Its IC50 is 50 to 500 nM.

How did the IC50 turn out when `N#Cc1ccnc(Nc2cc(C3CC3)cc(-c3ccc4ncn([C@H]5CC[C@H](O)CC5)c4c3)n2)c1` [Example 122, 2-({4-cyclopropyl-6-[1-(trans-4-hydroxycyclohexyl)-1H-benzimidazol-6-yl]pyridin-2-yl}amino)pyridine-4-carbonitrile hydrochloride] was run?
The IC50 was less than 5 nM.

For `CCOC(=O)CCn1cnc2cc(-c3cc(C4CC4)cc(Nc4cc(C#N)ccn4)n3)ccc21` [Example 123, ethyl 3-(5-{6-[(4-cyanopyridin-2-yl)amino]-4-cyclopropylpyridin-2-yl}-1H-benzimidazol-1-yl)propanonate hydrochloride], which IC50 is on record?
The IC50 was 50 to 500 nM.

Which IC50 does the source give for `CN(C)C(=O)CCn1cnc2ccc(-c3cc(C4CC4)cc(Nc4cc(C#N)ccn4)n3)cc21` [Example 125, 3-(6-{6-[(4-cyanopyridin-2-yl)amino]-4-cyclopropylpyridin-2-yl}-1H-benzimadazol-1-yl)-N,N-dimethylpropanamide hydrochloride] here?
Its IC50 is 50 to 500 nM.

For `COC(=O)CCn1cnc2ccc(-c3cc(C4CC4)cc(Nc4cc(C#N)ccn4)n3)cc21` [Example 126, methyl 3-(6-{6-[(4-cyanopyridin-2-yl)amino]-4-cyclopropylpyridin-2-yl}1H-benzimidazol-1-yl)propanonate hydrochloride], which IC50 is on record?
Its IC50 is 50 to 500 nM.

For `N#Cc1ccnc(Nc2cc(C3CC3)cc(-c3ccc4ncn(CCCCO)c4c3)n2)c1` [Example 127, 2-({4-cyclopropyl-6-[1-(4-hydroxybutyl)-1H-benzimidaxol-6-yl]pyridin-2-yl}amino)pyridine-4-carbonitrile hydrochloride], which IC50 is on record?
The IC50 was 5 to 50 nM.

With `N#Cc1ccnc(Nc2cc(C3CC3)cc(-c3ccc4c(c3)ncn4CCC(N)=O)n2)c1` [Example 129, 3-(5-{6-[(4-cyanopyridin-2-yl)amino]-4-cyclopropylpyridin-2-yl}-1H-benzimidazol-1-yl)propanamide hydrochloride] as the compound, how does the IC50 read?
Its IC50 is 5 to 50 nM.

With `N#Cc1ccnc(Nc2cc(C3CC3)cc(-c3ccc4ncn(Cc5cccnc5)c4c3)n2)c1` [Example 130, 2-({4-cyclopropyl-6-[1-(pyridin-3-ylmethyl)-1H-benzimidazol-6-yl]pyridin-2-yl}amino)pyridine-4-carbonitrile hydrochloride] as the compound, how does the IC50 read?
Its IC50 is 50 to 500 nM.

For `CN(C)C(=O)CCn1cnc2cc(-c3cc(C4CC4)cc(Nc4cc(C#N)ccn4)n3)ccc21` [Example 131, 3-(5-{6-[(4-cyanopyridin-2-yl)amino]-4-cyclopropylpyridin-2-yl}-1H-benzimidazol-1-yl)-N,N-dimethylproanamide hydrochloride], which IC50 is on record?
Its IC50 is 50 to 500 nM.

Which IC50 does the source give for `CNC(=O)CCn1cnc2cc(-c3cc(C4CC4)cc(Nc4cc(C#N)ccn4)n3)ccc21` [Example 132, 3-(5-{6-[(4-cyanopyridin-2-yl)amino]-4-cyclopropylpyridin-2-yl}-1H-benzimidazol-1-yl)-N-methylpropanamide hydrochloride] here?
The IC50 was 50 to 500 nM.
